Reference: patent US8486991B2, “Enantiomerically pure phosphoindoles as HIV inhibitors” (Idenix Pharmaceuticals, Inc., priority 2006, dated 2013)
“Also recorded” adds a separate entry of the source. Read-outs that look alike come from different tables or passages of the source.

Legend:
[1] = tested on: CYP3A4 (activation of PXR in DPX2 cells); assay: CYP3A4 induction screen in DPX2 cells; format: cell-based, human; settings: extent compared with rifampicine, mifepristone, androstanol
Source text: The potential for in vitro induction of CYP3A4 was screened in DPX2 cells. The DPX2 cell line is a derivative of a human hepatocellular carcinoma cell line (HepG2) transformed with the human pregnane x receptor (PXR) and a reporter gene vector containing the enhancer region of CYP3A4. The potential for in vitro induction of CYP1A2 was screened in CYP1A2-DRE cells. The CYP1A2-DRE cell line is a stably transformed HepG2 cells with dioxin response elements (DRE) and reporter gene containing CYP1A2 promoter elements. The extent of CYP3A4 induction was determined by comparing the activation of PXR obtained with test article to that obtained with rifampicine (potent inducer), mifepristone (moderate inducer) and androstanol (weak inducer). The extent of CYP1A2 induction was determined by comparing the activation of the aryl hydrocarbon receptor (AhR) obtained with test article to that obtained with TCDD (potent inducer), omeprazole (moderate inducer), and 2-acetylaminofluorene (weak inducer).

[2] = In vitro half-life in liver microsomes, monkey; format: in vitro ADME; settings: up to one hour, n=1
Protocol: (§1) In vitro metabolism was assessed using liver microsomes for all species. Compounds were incubated at 1 μM with liver microsomes for up to one hour. Reported half-lives greater than the total incubation time are extrapolated values. Extracts were assayed for disappearance of parent compound by LC-MS/MS detection.
(§2) Data represents one independent experiment conducted.

[3] = Plasma protein binding by equilibrium dialysis, rat; format: in vitro ADME; settings: for fraction unbound: rat, read-out: Percentage Plasma Protein Binding, Rats
Protocol: (§3) The in vitro plasma protein binding of compound I and compound III in rat, dog, monkey and human plasma was determined by equilibrium dialysis. Protein binding was assessed by equilibrium dialysis using rat, dog, monkey and human plasma. Samples were assayed by HPLC with LC-MS/MS detection. Plasma protein binding was high (>99%) for all species and for both compounds.

[4] = Compound depletion in hepatocytes, rat; format: in vitro ADME; settings: up to 2 hours, read-out: t½, Compound Depletion in Hepatocytes, Rat
Protocol: (§4) Fresh hepatocytes were plated onto collagen-coated plates and exposed to test compounds at 1 μM for up to 2 hours. Tissue culture medium was assayed for compound depletion by LC/MS detection. Values in Table 23 represent independent experiments from 5 to 7 donors.

[5] = molecular target: T1, CYP1A2 (Homo sapiens, UniProt P05177); assay: Recombinant CYP450 inhibition, fluorometric, CYP1A2; format: in vitro ADME; set-up: from tissue; host or cells: pooled human liver microsomes
T1 sequence (P05177 1-516): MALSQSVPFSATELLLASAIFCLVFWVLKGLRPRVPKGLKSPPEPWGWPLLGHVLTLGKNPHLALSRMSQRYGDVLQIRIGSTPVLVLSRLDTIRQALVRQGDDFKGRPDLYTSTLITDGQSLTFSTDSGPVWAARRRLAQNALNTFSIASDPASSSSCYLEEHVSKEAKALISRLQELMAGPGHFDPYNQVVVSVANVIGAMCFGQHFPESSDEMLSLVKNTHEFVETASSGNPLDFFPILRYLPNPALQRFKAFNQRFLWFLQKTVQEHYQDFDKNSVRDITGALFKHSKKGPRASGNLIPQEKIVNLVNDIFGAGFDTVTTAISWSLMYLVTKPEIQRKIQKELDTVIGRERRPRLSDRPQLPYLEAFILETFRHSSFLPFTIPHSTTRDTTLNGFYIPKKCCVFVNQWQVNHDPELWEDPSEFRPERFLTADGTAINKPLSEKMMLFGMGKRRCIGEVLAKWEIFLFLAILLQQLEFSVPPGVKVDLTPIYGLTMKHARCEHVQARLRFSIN
Protocol: (§5) Compounds were assayed using recombinant human microsomal proteins with fluorometric substrates. Signal was measured with a Fusion plate reader utilizing the appropriate excitation and emission wavelength set to detect the specific metabolite: […]

[6] = molecular target: CYP2C9 (Homo sapiens, UniProt P11712); assay: Human liver microsomal CYP450 inhibition, CYP2C9; settings: for Type of inhibition, CYP2C9 (Diclofenac): human liver microsomes
Protocol: (§6) In addition, the type of inhibition was also evaluated.
(§7) Enzyme kinetic studies of cytochrome P450 isozyme inhibition were conducted using human liver microsomes.
(§8) Probe substrate for 2C8 was paclitaxel, probe substrate for 2C9 was diclofenac and for 3A4 probe substrates were midazolam and testosterone.

[7] = tested on: EFV resistant, NNRTI resistant, NRTI and PI mutant HIV-1 viruses; format: cell-based; settings: for activity against EFV resistant viruses compared with EFV: including double and triple mutants
[8] = molecular target: T2, CYP2C8 (Homo sapiens, UniProt P10632); assay: Human liver microsomal CYP450 inhibition, CYP2C8; settings: for Type of inhibition, CYP2C8 (Paclitaxel): human liver microsomes; for IC50: human, pooled human liver microsomes, probe paclitaxel
T2 sequence (P10632 1-490): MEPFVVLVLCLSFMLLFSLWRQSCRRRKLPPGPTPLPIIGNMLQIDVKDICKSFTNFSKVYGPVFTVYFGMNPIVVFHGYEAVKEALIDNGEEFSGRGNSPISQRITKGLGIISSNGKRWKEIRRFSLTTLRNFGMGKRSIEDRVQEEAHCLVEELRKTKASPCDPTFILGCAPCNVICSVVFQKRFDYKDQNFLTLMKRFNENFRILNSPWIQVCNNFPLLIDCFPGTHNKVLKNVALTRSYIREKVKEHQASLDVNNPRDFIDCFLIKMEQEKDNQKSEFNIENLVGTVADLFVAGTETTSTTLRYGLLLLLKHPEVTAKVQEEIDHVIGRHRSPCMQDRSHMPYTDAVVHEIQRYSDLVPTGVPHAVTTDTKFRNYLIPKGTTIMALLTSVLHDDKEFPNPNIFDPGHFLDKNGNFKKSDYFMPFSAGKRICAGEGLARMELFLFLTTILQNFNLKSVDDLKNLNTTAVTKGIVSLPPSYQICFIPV
Protocol: as §6, §7, §8

[9] = molecular target: CYP2C19 (Homo sapiens, UniProt P33261); assay: Human liver microsomal CYP450 inhibition, CYP2C19; settings: for IC50, CYP2C19: human liver microsomes
Protocol: as §6, §7

[10] = Plasma protein binding by equilibrium dialysis, human; format: in vitro ADME
Protocol: as §3

[11] = In vitro half-life in liver microsomes, human; format: in vitro ADME; settings: up to one hour, longer half-lives are extrapolated, n=1
Protocol: as §1, §2

[12] = Compound depletion in hepatocytes, dog; format: in vitro ADME; settings: up to 2 hours, read-out: t½, Compound Depletion in Hepatocytes, Dog
Protocol: as §4

[13] = Plasma protein binding by equilibrium dialysis, monkey; format: in vitro ADME
Protocol: as §3

[14] = molecular target: CYP3A4 (Homo sapiens, UniProt P08684); assay: Recombinant CYP450 inhibition, fluorometric, CYP3A4; format: in vitro ADME; set-up: from tissue; host or cells: pooled human liver microsomes
Protocol: as §5

[15] = human, pooled human liver microsomes, probe diclofenac
[16] = fresh hepatocytes plated on collagen-coated plates

Chain of CYP2C19 (P33261 whole entry): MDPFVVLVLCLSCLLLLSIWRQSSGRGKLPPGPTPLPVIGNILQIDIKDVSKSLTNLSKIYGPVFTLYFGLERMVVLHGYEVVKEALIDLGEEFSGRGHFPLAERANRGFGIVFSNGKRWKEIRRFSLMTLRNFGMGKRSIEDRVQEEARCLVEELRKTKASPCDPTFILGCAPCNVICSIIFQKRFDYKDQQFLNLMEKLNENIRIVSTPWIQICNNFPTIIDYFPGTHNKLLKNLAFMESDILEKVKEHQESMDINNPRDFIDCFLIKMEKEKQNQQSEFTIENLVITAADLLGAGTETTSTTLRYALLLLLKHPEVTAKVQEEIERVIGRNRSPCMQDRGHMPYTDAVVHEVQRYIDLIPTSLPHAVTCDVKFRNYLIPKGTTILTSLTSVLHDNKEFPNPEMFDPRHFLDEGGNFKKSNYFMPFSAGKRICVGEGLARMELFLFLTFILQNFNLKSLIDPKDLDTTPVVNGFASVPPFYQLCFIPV
Chain of CYP2C9 (P11712 whole entry): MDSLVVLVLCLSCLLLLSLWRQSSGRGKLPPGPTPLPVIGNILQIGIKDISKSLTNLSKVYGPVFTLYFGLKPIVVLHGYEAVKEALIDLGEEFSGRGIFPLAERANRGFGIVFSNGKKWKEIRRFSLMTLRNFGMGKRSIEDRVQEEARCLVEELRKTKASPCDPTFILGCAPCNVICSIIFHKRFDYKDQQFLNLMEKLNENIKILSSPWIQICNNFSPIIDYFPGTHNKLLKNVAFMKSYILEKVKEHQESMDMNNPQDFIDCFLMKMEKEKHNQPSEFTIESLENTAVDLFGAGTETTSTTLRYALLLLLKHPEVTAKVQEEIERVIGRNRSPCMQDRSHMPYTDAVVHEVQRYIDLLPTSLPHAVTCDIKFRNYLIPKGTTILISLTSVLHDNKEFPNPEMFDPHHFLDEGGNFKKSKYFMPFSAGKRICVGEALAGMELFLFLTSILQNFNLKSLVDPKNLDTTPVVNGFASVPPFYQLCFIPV
Chain of CYP3A4 (P08684 whole entry): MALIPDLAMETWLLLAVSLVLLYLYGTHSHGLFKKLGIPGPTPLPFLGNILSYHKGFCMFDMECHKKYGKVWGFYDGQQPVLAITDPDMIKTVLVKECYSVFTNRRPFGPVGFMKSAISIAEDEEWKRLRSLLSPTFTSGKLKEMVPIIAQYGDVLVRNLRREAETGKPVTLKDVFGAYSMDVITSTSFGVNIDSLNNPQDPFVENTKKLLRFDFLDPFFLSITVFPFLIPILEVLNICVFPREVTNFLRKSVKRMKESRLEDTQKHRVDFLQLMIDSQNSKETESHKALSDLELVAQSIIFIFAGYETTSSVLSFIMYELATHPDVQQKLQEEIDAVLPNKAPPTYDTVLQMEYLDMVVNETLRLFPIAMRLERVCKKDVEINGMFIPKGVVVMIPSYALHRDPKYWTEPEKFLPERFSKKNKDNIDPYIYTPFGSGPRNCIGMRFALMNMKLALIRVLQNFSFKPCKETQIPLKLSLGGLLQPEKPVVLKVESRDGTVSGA

SMILES | Induction, DPX2 (CYP3A4) [1] | Percentage Plasma Protein Binding, Rats [3] [%] | Ki [6] [µM] | Type of inhibition, CYP2C9 (Diclofenac) [6] | IC50 [6, 15] [µM] | activity against sub-panel of mutants bearing NRTI and PI mutations [7] | activity against EFV resistant viruses compared with EFV [7] | Ki [8] [µM] | Type of inhibition, CYP2C8 (Paclitaxel) [8] | IC50 [8] [µM] | IC50 [9] [µM] | IC50, CYP2C19 [9] | Percentage Plasma Protein Binding, Humans [10] [%] | Percentage Plasma Protein Binding, Monkeys [13] [%] | also measured
CO[P@](=O)(c1cc(C)cc(/C=C/C#N)c1)c1c(C(N)=O)[nH]c2ccc(Cl)c(F)c12 [Compound I, (2-Carbamoyl-5-chloro-4-fluoro-1H-indol-3-yl)-[3-((E)-2-cyano-vinyl)-5-methyl-phenyl]-(R)-phosphinic acid methyl ester] | moderate inducers; also recorded: Moderate (n = 2) | 99.1 | 1.4 | competitive inhibition | < 10 | highly active | superior to EFV | 1.1 | competitive inhibition | < 10 | 10.2 | not observed | 99.8 | 99.9 | half-life at 1 μM ([2]; microsomes): 15.4 min; fraction unbound ([3]; plasma): < 0.01; half-life at 1 μM ([4]; hepatocytes): 33 ± 26 min; inhibition at 20 µM ([5]; human, recombinant enzyme, 20 μM, read-out: percentage of inhibition at the highest concentration tested, CYP1A2): 17.5%; Type of inhibition, CYP2C9 (Diclofenac) ([6]; listed as compound I): competitive inhibition; Ki [6, 15]: 1.45 µM; potency relative to Compound III against EFV resistant viruses with double and triple mutants [7]: 2-3; Type of inhibition, CYP2C8 (Paclitaxel) ([8]; listed as compound I): competitive inhibition; half-life at 1 μM ([11]; microsomes): 121 min; half-life at 1 μM ([12]; hepatocytes): 28 ± 14 min; IC50 [14]: 1.46 ± 0.39 µM
CO[P@](=O)(c1cc(C)cc(/C=C/C#N)c1)c1c(C(N)=O)[nH]c2ccc(Cl)cc12 [Compound III, (2-Carbamoyl-5-chloro-1H-indol-3-yl)-[3-((E)-2-cyano-vinyl)-5-methyl-phenyl]-(R)-phosphinic acid methyl ester] | moderate inducers; also recorded: Moderate (n = 2) | 99.4 | 0.93 | competitive inhibition | < 10 | highly active | superior to EFV | 0.66 | competitive inhibition | < 10 | 10.2 | not observed | 99.9 | 99.9 | half-life at 1 μM ([2]; liver microsomes): 12.6 min; fraction unbound ([3]; rat plasma): < 0.01; half-life at 1 μM [4, 16]: 17 ± 15 min; IC50 ([5]; highest concentration tested 20 μM): 17.6 ± 2.06 µM; Type of inhibition, CYP2C9 (Diclofenac) ([6]; listed as compound III): competitive inhibition; Type of inhibition, CYP2C8 (Paclitaxel) ([8]; listed as compound III): competitive inhibition; half-life at 1 μM ([11]; liver microsomes): 154 min; half-life at 1 μM [12, 16]: 21 ± 10 min; IC50 ([14]; recombinant, highest concentration tested 10 μM, read-out: IC50, CYP3A4): 2.86 ± 0.78 µM
